Data from US9833497B2, “Human originated EGF domain proteins and use of the same” (CHENGDU SOURCEBIO LIMITED-LIABILITY COMPANY, priority 2013, dated 2017).

How the values were obtained:
Assay type in all cases: cell-based
E. coli DH5α = assay: Antibacterial activity: MIC and growth curve against E. coli DH5α in 96-well plate; conditions: minimal inhibitory concentration against E. coli DH5α; 96-well plate, 5×10^5 CFU/mL, 37° C., judged after 8 h
Summary of the method: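 Log-phase bacteria (OD600 ~0.5) resuspended in LB at 5×10^5 CFU/mL, exposed to recombinant protein at 50, 25, 12.5 μg/mL final in triplicate, 37 °C shaking at 175 rpm. OD600 read every 30 min; MIC is lowest concentration showing no growth.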

E. coli BL21 = assay: MIC against Gram-negative bacteria: E. coli BL21; conditions: for MIC against E. coli BL21: 96-well plate, 37° C., 10 h; for MIC against E. coli BL21 / MIC (μg/mL) E. coli BL21: 5×10^5 CFU/mL
Summary of the method: (§1)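 Inocula prepared by growing LB cultures at 37° C to 0.5 McFarland, centrifuging at 4000×g, and resuspending in fresh medium. Final density 5×10^5 CFU/mL per well with two-fold dilutions of purified EGF domain protein; shaking incubation at 37° C.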

Pseudomonas aeruginosa = assay: MIC against Gram-negative bacteria: Pseudomonas aeruginosa; conditions: for MIC against P. aeruginosa: 96-well plate, 37° C., 10 h; for MIC against P. aeruginosa / MIC (μg/mL) P. aeruginosa: 5×10^5 CFU/mL
Summary of the method: as §1

Klebsiella pneumonia = assay: MIC against Gram-negative bacteria: Klebsiella pneumonia; conditions: for MIC against K. pneumonia: 96-well plate, 37° C., 10 h; for MIC against K. pneumonia / MIC (μg/mL) K. pneumonia: 5×10^5 CFU/mL
Summary of the method: as §1

Enterobacter cloacae = assay: MIC against Gram-negative bacteria: Enterobacter cloacae; conditions: for MIC against E. cloacae: 96-well plate, 37° C., 10 h; for MIC against E. cloacae / MIC (μg/mL) E. cloacae: 5×10^5 CFU/mL
Summary of the method: as §1

Aeromonas hydrophila = assay: MIC against Gram-negative bacteria: Aeromonas hydrophila; conditions: for MIC against A. hydrophila: 96-well plate, 37° C., 10 h; for MIC against A. hydrophila / MIC (μg/mL) A. hydrophila: 5×10^5 CFU/mL
Summary of the method: as §1

Citrobacter diversus = assay: MIC against Gram-negative bacteria: Citrobacter diversus; conditions: for MIC against C. diversus: 96-well plate, 37° C., 10 h; for MIC against C. diversus / MIC (μg/mL) C. diversus: 5×10^5 CFU/mL
Summary of the method: as §1

Moraxella catarrhalis = assay: MIC against Gram-negative bacteria: Moraxella catarrhalis; conditions: for MIC against M. catarrhalis: 96-well plate, 37° C., 10 h; for MIC against M. catarrhalis / MIC (μg/mL) M. catarrhalis: 5×10^5 CFU/mL
Summary of the method: as §1

Proteus mirabilis = assay: MIC against Gram-negative bacteria: Proteus mirabilis; conditions: for MIC against P. mirabilis: 96-well plate, 37° C., 10 h; for MIC against P. mirabilis / MIC (μg/mL) P. mirabilis: 5×10^5 CFU/mL
Summary of the method: as §1

Proteus vulgaris = assay: MIC against Gram-negative bacteria: Proteus vulgaris; conditions: for MIC against P. vulgaris: 96-well plate, 37° C., 10 h; for MIC against P. vulgaris / MIC (μg/mL) P. vulgaris: 5×10^5 CFU/mL
Summary of the method: as §1

Serratia marcescens = assay: MIC against Gram-negative bacteria: Serratia marcescens; conditions: for MIC against S. marcescens: 96-well plate, 37° C., 10 h; for MIC against S. marcescens / MIC (μg/mL) S. marcescens: 5×10^5 CFU/mL
Summary of the method: as §1

[1] = E. coli BL21, 10 h cultivation at 37° C.
[2] = P. aeruginosa, 10 h cultivation at 37° C.
[3] = K. pneumonia, 10 h cultivation at 37° C.
[4] = E. cloacae, 10 h cultivation at 37° C.
[5] = A. hydrophila, 10 h cultivation at 37° C.
[6] = C. diversus, 10 h cultivation at 37° C.
[7] = M. catarrhalis, 10 h cultivation at 37° C.
[8] = P. mirabilis, 10 h cultivation at 37° C.
[9] = P. vulgaris, 10 h cultivation at 37° C.
[10] = S. marcescens, 10 h cultivation at 37° C.

## PRT1329 (LPAVCTPPCSAHATCKENNTCECNLDYEGDGITCT; listed as Homo sapiens)
E. coli DH5α
  MIC: 12.5 µg/mL
E. coli BL21; E. coli BL21
  MIC against E. coli BL21: 50 µg/mL
Pseudomonas aeruginosa; Pseudomonas aeruginosa
  MIC against P. aeruginosa: 12.5 µg/mL
Klebsiella pneumonia; Klebsiella pneumonia
  MIC against K. pneumonia: 50 µg/mL
Enterobacter cloacae; Enterobacter cloacae
  MIC against E. cloacae: 12.5 µg/mL
Aeromonas hydrophila; Aeromonas hydrophila
  MIC against A. hydrophila: 50 µg/mL
Citrobacter diversus; Citrobacter diversus
  MIC against C. diversus: 25 µg/mL
Moraxella catarrhalis; Moraxella catarrhalis
  MIC against M. catarrhalis: 12.5 µg/mL
Proteus mirabilis; Proteus mirabilis
  MIC against P. mirabilis: 25 µg/mL
Proteus vulgaris; Proteus vulgaris
  MIC against P. vulgaris: 25 µg/mL
Serratia marcescens; Serratia marcescens
  MIC against S. marcescens: 25 µg/mL

## PRT763 (ALDRCALNTHGCEHICVNDRSGSYHCECYEGYTLNEDRKTCS; listed as Homo sapiens)
E. coli DH5α
  MIC: 25 µg/mL
E. coli BL21; [1]
  MIC (μg/mL) E. coli BL21: 50 µg/mL
Pseudomonas aeruginosa; [2]
  MIC (μg/mL) P. aeruginosa: 12.5 µg/mL
Klebsiella pneumonia; [3]
  MIC (μg/mL) K. pneumonia: 25 µg/mL
Enterobacter cloacae; [4]
  MIC (μg/mL) E. cloacae: 12.5 µg/mL
Aeromonas hydrophila; [5]
  MIC (μg/mL) A. hydrophila: 25 µg/mL
Citrobacter diversus; [6]
  MIC (μg/mL) C. diversus: 12.5 µg/mL
Moraxella catarrhalis; [7]
  MIC (μg/mL) M. catarrhalis: 12.5 µg/mL
Proteus mirabilis; [8]
  MIC (μg/mL) P. mirabilis: 12.5 µg/mL
Proteus vulgaris; [9]
  MIC (μg/mL) P. vulgaris: 50 µg/mL
Serratia marcescens; [10]
  MIC (μg/mL) S. marcescens: 25 µg/mL

## PRT745 (RQHPCAQDNGGCSHICLVKGDGTTRCSCPMHLVLLQDELSCG; listed as Homo sapiens)
E. coli DH5α
  MIC: 50 µg/mL
E. coli BL21; [1]
  MIC (μg/mL) E. coli BL21: 25 µg/mL
Pseudomonas aeruginosa; [2]
  MIC (μg/mL) P. aeruginosa: 50 µg/mL
Klebsiella pneumonia; [3]
  MIC (μg/mL) K. pneumonia: 12.5 µg/mL
Enterobacter cloacae; [4]
  MIC (μg/mL) E. cloacae: 50 µg/mL
Aeromonas hydrophila; [5]
  MIC (μg/mL) A. hydrophila: 12.5 µg/mL
Citrobacter diversus; [6]
  MIC (μg/mL) C. diversus: 50 µg/mL
Moraxella catarrhalis; [7]
  MIC (μg/mL) M. catarrhalis: 12.5 µg/mL
Proteus mirabilis; [8]
  MIC (μg/mL) P. mirabilis: 25 µg/mL
Proteus vulgaris; [9]
  MIC (μg/mL) P. vulgaris: 50 µg/mL
Serratia marcescens; [10]
  MIC (μg/mL) S. marcescens: 25 µg/mL

## PRT241 (DTDECQIAGVCQQMCVNYVGGFECYCSEGHELEADGISCS; listed as Homo sapiens)
E. coli DH5α
  MIC: 12.5 µg/mL
E. coli BL21; [1]
  MIC (μg/mL) E. coli BL21: 12.5 µg/mL
Pseudomonas aeruginosa; [2]
  MIC (μg/mL) P. aeruginosa: 12.5 µg/mL
Klebsiella pneumonia; [3]
  MIC (μg/mL) K. pneumonia: 12.5 µg/mL
Enterobacter cloacae; [4]
  MIC (μg/mL) E. cloacae: 12.5 µg/mL
Aeromonas hydrophila; [5]
  MIC (μg/mL) A. hydrophila: 12.5 µg/mL
Citrobacter diversus; [6]
  MIC (μg/mL) C. diversus: 12.5 µg/mL
Moraxella catarrhalis; [7]
  MIC (μg/mL) M. catarrhalis: 25 µg/mL
Proteus mirabilis; [8]
  MIC (μg/mL) P. mirabilis: 12.5 µg/mL
Proteus vulgaris; [9]
  MIC (μg/mL) P. vulgaris: 25 µg/mL
Serratia marcescens; [10]
  MIC (μg/mL) S. marcescens: 50 µg/mL

## PRT1011 (RAPSCGFHHCHHGGLCLPSPKPGFPPRCACLSGYGGPDCL; listed as Homo sapiens)
E. coli DH5α
  MIC: 12.5 µg/mL
E. coli BL21; [1]
  MIC: 50 µg/mL
Pseudomonas aeruginosa; [2]
  MIC: 12.5 µg/mL
Klebsiella pneumonia; [3]
  MIC: 50 µg/mL
Enterobacter cloacae; [4]
  MIC: 12.5 µg/mL
Aeromonas hydrophila; [5]
  MIC: 50 µg/mL
Citrobacter diversus; [6]
  MIC: 25 µg/mL
Moraxella catarrhalis; [7]
  MIC: 12.5 µg/mL
Proteus mirabilis; [8]
  MIC: 25 µg/mL
Proteus vulgaris; [9]
  MIC: 50 µg/mL
Serratia marcescens; [10]
  MIC: 25 µg/mL

## PRT557 (CGCSPAGTLPEGCDEAGRCLCQPEFAGPHCDRCRPGYHGFPNCQA; listed as Homo sapiens)
E. coli DH5α
  MIC: 12.5 µg/mL
E. coli BL21
  MIC against E. coli BL21: 25 µg/mL
Pseudomonas aeruginosa
  MIC against P. aeruginosa: 12.5 µg/mL
Klebsiella pneumonia
  MIC against K. pneumonia: 25 µg/mL
Enterobacter cloacae
  MIC against E. cloacae: 12.5 µg/mL
Aeromonas hydrophila
  MIC against A. hydrophila: 25 µg/mL
Citrobacter diversus
  MIC against C. diversus: 12.5 µg/mL
Moraxella catarrhalis
  MIC against M. catarrhalis: 25 µg/mL
Proteus mirabilis
  MIC against P. mirabilis: 12.5 µg/mL
Proteus vulgaris
  MIC against P. vulgaris: 25 µg/mL
Serratia marcescens
  MIC against S. marcescens: 12.5 µg/mL

## PRT505 (CECHVKGSHSAVCHLETGLCDCKPNVTGQQCDQCLHGYYGLDSGHGCRP; listed as Homo sapiens)
E. coli DH5α
  MIC: 50 µg/mL
E. coli BL21
  MIC against E. coli BL21: 12.5 µg/mL
Pseudomonas aeruginosa
  MIC against P. aeruginosa: 50 µg/mL
Klebsiella pneumonia
  MIC against K. pneumonia: 12.5 µg/mL
Enterobacter cloacae
  MIC against E. cloacae: 50 µg/mL
Aeromonas hydrophila
  MIC against A. hydrophila: 12.5 µg/mL
Citrobacter diversus
  MIC against C. diversus: 50 µg/mL
Moraxella catarrhalis
  MIC against M. catarrhalis: 25 µg/mL
Proteus mirabilis
  MIC against P. mirabilis: 12.5 µg/mL
Proteus vulgaris
  MIC against P. vulgaris: 25 µg/mL
Serratia marcescens
  MIC against S. marcescens: 50 µg/mL
